Test results reported in ChEMBL document CHEMBL1153916, “Lithospermic acid derivatives from Lithospermum erythrorhizon increased expression of serine palmitoyltransferase in human HaCaT cells” (Bioorg Med Chem Lett, 2009).
The source made the active and inactive calls. No cut-off for these calls is given here.

Tests used:
HaCaT [1] = experiment: Increase in serine palmitoyltransferase protein expression in human HaCaT cells at 100 ug/mL by Western blot relative to untreated control; assay type: functional
HaCaT [2] = experiment: Increase in serine palmitoyltransferase 2 mRNA expression in human HaCaT cells by RT-PCR relative to untreated control; assay type: functional
HaCaT [3] = experiment: Increase in serine palmitoyltransferase 1 mRNA expression in human HaCaT cells by RT-PCR relative to untreated control; assay type: functional
HaCaT [4] = experiment: Cytotoxicity against human HaCaT cells at 50 to 200 ug/mL by MTT assay; assay type: cell-based
HaCaT [5] = experiment: Increase in serine palmitoyltransferase protein expression in human HaCaT cells at 30 ug/mL by Western blot relative to untreated control; assay type: functional
HaCaT [6] = experiment: Effect on p65 nuclear expression in human HaCaT cells at 100 ug/mL after 12 hrs by Western blot; assay type: functional, cell-based
HaCaT [7] = experiment: Activation of NF-kappaB expressed in human HaCaT cells by luciferase reporter gene assay; assay type: cell-based

For NC(=O)c1cccnc1 [NIACINAMIDE], the Activity (HaCaT [1]) was 57.3%, the Activity (HaCaT [2]) was 128% and the Activity (HaCaT [3]) was 127%.
For COC(=O)[C@H]1c2c(/C=C/C(=O)O[C@H](Cc3ccc(O)c(O)c3)C(=O)O)ccc(O)c2O[C@@H]1c1ccc(O)c(O)c1, the Activity (HaCaT [4]) was “Non-toxic”, the Activity (HaCaT [1]) was 23% and the Activity (HaCaT [5]) was 8.9%. The Activity (HaCaT [6]) was “inactive”, the Activity (HaCaT [2]) was 139% and the Activity (HaCaT [3]) was 139%. For the same compound, the Activity (HaCaT [7]) was “inactive”.
O=C(/C=C/c1ccc(O)c2c1[C@H](C(=O)O)[C@@H](c1ccc(O)c(O)c1)O2)O[C@H](Cc1ccc(O)c(O)c1)C(=O)O [LITHOSPERMIC ACID] was tested, and the Activity (HaCaT [4]) was “Non-toxic”, the Activity (HaCaT [1]) was 55% and the Activity (HaCaT [5]) was 21.7%. For the same compound, the Activity (HaCaT [6]) was “inactive”, the Activity (HaCaT [2]) was 151% and the Activity (HaCaT [3]) was 121%. For the same compound, the Activity (HaCaT [7]) was “inactive”.
COC(=O)[C@@H](Cc1ccc(O)c(O)c1)OC(=O)/C=C/c1ccc(O)c2c1[C@H](C(=O)O)[C@@H](c1ccc(O)c(O)c1)O2 was tested, and the Activity (HaCaT [4]) was “Non-toxic”, the Activity (HaCaT [1]) was 81% and the Activity (HaCaT [5]) was 20.2%. For the same compound, the Activity (HaCaT [6]) was “inactive”, the Activity (HaCaT [2]) was 159% and the Activity (HaCaT [3]) was 148%. The Activity (HaCaT [7]) was “inactive”.
